Laboratory results taken from PubChem BioAssay (NCI).
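A five-concentration, 48-hour dose response in 96-well plates underlies each endpoint, interpolated linearly between surrounding concentrations. TGI is the concentration that stops growth completely.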

Assays:
Assay in all cases: NCI anticancer screen, dose series, 48 h
M14 melanoma = system: M14 melanoma
HOP-92 NSCLC = system: HOP-92 NSCLC
DU-145 prostate = system: DU-145 prostate
SF-268 CNS = system: SF-268 CNS
EKVX NSCLC = system: EKVX NSCLC
SNB-75 CNS = system: SNB-75 CNS
OVCAR-3 ovarian = system: OVCAR-3 ovarian
LOX IMVI melanoma = system: LOX IMVI melanoma
OVCAR-4 ovarian = system: OVCAR-4 ovarian
K-562 leukemia = system: K-562 leukemia
HS 578T breast = system: HS 578T breast
OVCAR-8 ovarian = system: OVCAR-8 ovarian
IGROV1 ovarian = system: IGROV1 ovarian
KM12 colon = system: KM12 colon
786-0 renal = system: 786-0 renal
MDA-MB-231 breast = system: MDA-MB-231 breast
UACC-62 melanoma = system: UACC-62 melanoma
HCT-116 colon = system: HCT-116 colon
MALME-3M melanoma = system: MALME-3M melanoma
PC-3 prostate = system: PC-3 prostate
MDA-N = system: MDA-N
HL-60(TB) leukemia = system: HL-60(TB) leukemia
A498 renal = system: A498 renal
MDA-MB-435 = system: MDA-MB-435
RXF 393 renal = system: RXF 393 renal
HCC-2998 colon = system: HCC-2998 colon
UACC-257 melanoma = system: UACC-257 melanoma
U251 CNS = system: U251 CNS
NCI-H226 lung = system: NCI-H226 lung
SF-539 CNS = system: SF-539 CNS
HT29 colon = system: HT29 colon
SW-620 colon = system: SW-620 colon
COLO 205 colon = system: COLO 205 colon
MOLT-4 leukemia = system: MOLT-4 leukemia
SK-OV-3 ovarian = system: SK-OV-3 ovarian
NCI-H522 lung = system: NCI-H522 lung
SF-295 CNS = system: SF-295 CNS
SK-MEL-28 melanoma = system: SK-MEL-28 melanoma
NCI-H23 lung = system: NCI-H23 lung
A549 NSCLC = system: A549 NSCLC
CAKI-1 renal = system: CAKI-1 renal
CCRF-CEM leukemia = system: CCRF-CEM leukemia
NCI/ADR-RES ovarian = system: NCI/ADR-RES ovarian
NCI-H460 lung = system: NCI-H460 lung
ACHN renal = system: ACHN renal
TK-10 renal = system: TK-10 renal
T-47D breast = system: T-47D breast
SK-MEL-5 melanoma = system: SK-MEL-5 melanoma
SN12C renal = system: SN12C renal
RPMI-8226 leukemia = system: RPMI-8226 leukemia
MCF7 breast = system: MCF7 breast
OVCAR-5 ovarian = system: OVCAR-5 ovarian
HCT-15 colon = system: HCT-15 colon
SNB-19 CNS = system: SNB-19 CNS
HOP-62 NSCLC = system: HOP-62 NSCLC
SR leukemia = system: SR leukemia
SK-MEL-2 melanoma = system: SK-MEL-2 melanoma
UO-31 renal = system: UO-31 renal

CC(=O)c1sc2c(c1OC(=O)c1cccs1)c(=O)n(-c1ccccc1)c(=S)n2-c1ccccc1 showed a TGI (M14 melanoma) of 10.6 µM, a TGI (HOP-92 NSCLC) of 22.1 µM and a TGI (DU-145 prostate) of 57.8 µM. The TGI (SF-268 CNS) was 51.5 µM, the TGI (EKVX NSCLC) was 51.1 µM and the TGI (SNB-75 CNS) was 68.8 µM. For the same compound, the TGI (OVCAR-3 ovarian) was 50.4 µM, the TGI (LOX IMVI melanoma) was 17.2 µM and the TGI (OVCAR-4 ovarian) was 38.8 µM. It also gave a TGI (K-562 leukemia) of 95.4 µM, a TGI (HS 578T breast) of 22.3 µM and a TGI (OVCAR-8 ovarian) of 21.1 µM. It also gave a TGI (IGROV1 ovarian) of 35.4 µM, a TGI (KM12 colon) of 59 µM and a TGI (786-0 renal) of 15.5 µM. The TGI (MDA-MB-231 breast) was 32.2 µM, the TGI (UACC-62 melanoma) was 37.9 µM and the TGI (HCT-116 colon) was 36.6 µM. For the same compound, the TGI (MALME-3M melanoma) was 6.7 µM, the TGI (PC-3 prostate) was 15.2 µM and the TGI (MDA-N) was 19.2 µM. It also gave a TGI (HL-60(TB) leukemia) of 52.2 µM, a TGI (A498 renal) of 15.9 µM and a TGI (MDA-MB-435) of 20.8 µM. The TGI (RXF 393 renal) was 18.6 µM, the TGI (HCC-2998 colon) was greater than 100 µM and the TGI (UACC-257 melanoma) was 43.9 µM. It also gave a TGI (U251 CNS) of 26.7 µM, a TGI (NCI-H226 lung) of 9.84 µM and a TGI (SF-539 CNS) of 6.26 µM. It also gave a TGI (HT29 colon) of 11.6 µM, a TGI (SW-620 colon) of 45.9 µM and a TGI (COLO 205 colon) of 32.5 µM. It also gave a TGI (MOLT-4 leukemia) of 60.8 µM, a TGI (SK-OV-3 ovarian) of 52 µM and a TGI (NCI-H522 lung) of 6.07 µM. It also gave a TGI (SF-295 CNS) of 7.13 µM, a TGI (SK-MEL-28 melanoma) of 15.6 µM and a TGI (NCI-H23 lung) of 40.9 µM. The TGI (A549 NSCLC) was greater than 100 µM, the TGI (CAKI-1 renal) was 61.1 µM and the TGI (CCRF-CEM leukemia) was 22.6 µM. For the same compound, the TGI (NCI/ADR-RES ovarian) was 43.3 µM, the TGI (NCI-H460 lung) was 25.3 µM and the TGI (ACHN renal) was 11.1 µM. For the same compound, the TGI (TK-10 renal) was 55.4 µM, the TGI (T-47D breast) was greater than 100 µM and the TGI (SK-MEL-5 melanoma) was 25.8 µM. It also gave a TGI (SN12C renal) of 15.1 µM, a TGI (RPMI-8226 leukemia) of 20.3 µM and a TGI (MCF7 breast) of 56.4 µM. It also gave a TGI (OVCAR-5 ovarian) of 13.2 µM, a TGI (HCT-15 colon) of 36.5 µM and a TGI (SNB-19 CNS) of 44.8 µM. The TGI (HOP-62 NSCLC) was 33.9 µM.

N#Cc1sc2nc(/C=C3/C=CC=CC3=O)c(O)n2c1N was tested, and the TGI (M14 melanoma) was greater than 100 µM, the TGI (HOP-92 NSCLC) was greater than 100 µM and the TGI (DU-145 prostate) was greater than 100 µM. For the same compound, the TGI (SF-268 CNS) was greater than 100 µM, the TGI (EKVX NSCLC) was greater than 100 µM and the TGI (SNB-75 CNS) was greater than 100 µM. For the same compound, the TGI (OVCAR-3 ovarian) was greater than 100 µM, the TGI (LOX IMVI melanoma) was greater than 100 µM and the TGI (OVCAR-4 ovarian) was greater than 100 µM. The TGI (K-562 leukemia) was 55.9 µM, the TGI (HS 578T breast) was greater than 100 µM and the TGI (OVCAR-8 ovarian) was greater than 100 µM. The TGI (IGROV1 ovarian) was greater than 100 µM, the TGI (KM12 colon) was greater than 100 µM and the TGI (786-0 renal) was greater than 100 µM. It also gave a TGI (MDA-MB-231 breast) greater than 100 µM, a TGI (HCT-116 colon) greater than 100 µM and a TGI (MALME-3M melanoma) greater than 100 µM. The TGI (PC-3 prostate) was greater than 100 µM, the TGI (MDA-N) was greater than 100 µM and the TGI (SR leukemia) was 60.3 µM. The TGI (HL-60(TB) leukemia) was 44.3 µM, the TGI (A498 renal) was greater than 100 µM and the TGI (MDA-MB-435) was greater than 100 µM. The TGI (RXF 393 renal) was greater than 100 µM, the TGI (HCC-2998 colon) was greater than 100 µM and the TGI (UACC-257 melanoma) was greater than 100 µM. The TGI (U251 CNS) was greater than 100 µM, the TGI (NCI-H226 lung) was greater than 100 µM and the TGI (SF-539 CNS) was 60 µM. For the same compound, the TGI (HT29 colon) was greater than 100 µM, the TGI (SW-620 colon) was greater than 100 µM and the TGI (SK-MEL-2 melanoma) was greater than 100 µM. It also gave a TGI (COLO 205 colon) greater than 100 µM, a TGI (MOLT-4 leukemia) of 59.8 µM and a TGI (SK-OV-3 ovarian) greater than 100 µM. For the same compound, the TGI (NCI-H522 lung) was greater than 100 µM, the TGI (SF-295 CNS) was greater than 100 µM and the TGI (SK-MEL-28 melanoma) was greater than 100 µM. The TGI (NCI-H23 lung) was greater than 100 µM, the TGI (UO-31 renal) was greater than 100 µM and the TGI (A549 NSCLC) was greater than 100 µM. The TGI (CAKI-1 renal) was greater than 100 µM, the TGI (CCRF-CEM leukemia) was 74.9 µM and the TGI (NCI/ADR-RES ovarian) was greater than 100 µM. It also gave a TGI (ACHN renal) greater than 100 µM, a TGI (TK-10 renal) greater than 100 µM and a TGI (T-47D breast) greater than 100 µM. The TGI (SK-MEL-5 melanoma) was greater than 100 µM, the TGI (SN12C renal) was greater than 100 µM and the TGI (RPMI-8226 leukemia) was 81.2 µM. The TGI (MCF7 breast) was greater than 100 µM, the TGI (OVCAR-5 ovarian) was greater than 100 µM and the TGI (HCT-15 colon) was greater than 100 µM. It also gave a TGI (SNB-19 CNS) greater than 100 µM and a TGI (HOP-62 NSCLC) greater than 100 µM.
